This experiment has as its system human truncated STING (hSTING^cd), cytosolic domain aa 139-379, R220H+H232R variant. As to conditions: 200 µM hSTING^cd, 0-150 µM competitor; Figure 10d.

Procedure: The quenching effect of STING on 2'3'fGAMP can be further used to search and compare STING-binding compounds. […] After second round of incubation for 15 min the samples were measured in 96-well black non-binding PS plates (Greiner Bio-One) on Tecan infinite M1000 (λex=305 nm, λem=363 nm, gain 140, settle time 10ms) at 25°C.

As to `Nc1nc2c(ncn2[C@@H]2O[C@@H]3COP(=O)(O)O[C@H]4[C@@H](O)[C@H](n5cnc6c(=O)[nH]c(N)nc65)O[C@@H]4COP(=O)(O)O[C@H]3[C@H]2O)c(=O)[nH]1` [c-di-GMP], the “affinity towards STING, compared by slope of fluorescence increase (s1, s2)” value is reported as “lower affinity”.

Source of the values: patent publication EP3431484A1, “A FLUORESCENT CYCLIC DINUCLEOTIDE AND ITS USE IN METHODS OF IDENTIFYING SUBSTANCES HAVING AN ABILITY TO MODULATE THE CGAS/STING PATHWAY” (Ludwig-Maximilians-Universität München, priority 2017, dated 2019).
